These are literature values, as cited in patent publication US20140256762A1, “ARTEMISININ-BASED COMBINATION THERAPY FOR TREATING VIRAL MEDIATED DISEASE” (priority 2012, published 2014).

The conditions of data set [1]: background statement.
For data set [2] the following is noted: background statement. The source holds these as a separate data set.

Turning to `COc1ccc2cc3[n+](cc2c1OC)CCc1cc2c(cc1-3)OCO2` [Berberine, (5,6-Dihydro-9,10-dimethoxybenzo[g]-1,3-benzodioxolo[5,6-a]quinolizinium)], in data set [1], the Genotoxic activity result is on record as “no genotoxic activity”. For the same compound, the Toxicity entry in data set [1] (generally considered) is on record as “non-toxic”.
Turning to `CO[C@H]1O[C@@H]2O[C@@]3(C)CC[C@H]4[C@H](C)CC[C@@H]([C@H]1C)[C@@]24OO3` [artemether, (+)-(3-alpha,5a-beta,6-beta,8a-beta, 9-alpha,12-beta,12aR)-decahydro-10-methoxy-3,6,9-trimethyl-3,12-epoxy-12H-pyrano(4,3-j)-1,2-benzodioxepin], the Solubility entry in data set [2] is “lipid-soluble”.
For `C[C@@H]1CC[C@H]2[C@@H](C)C(=O)O[C@@H]3O[C@@]4(C)CC[C@@H]1[C@]32OO4` [artemisinin], the Solubility entry in data set [2] is given as “sparingly soluble in either water or oils”.
On to `C[C@H]1[C@H](OC(=O)CCC(=O)O)O[C@@H]2O[C@@]3(C)CC[C@H]4[C@H](C)CC[C@@H]1[C@@]24OO3` [artesunate, 3R,5aS,6R,8aS,9R,10S,12R,12aR)-Decahydro-3,6,9-trimethyl-3,12-epoxy-12H-pyrano(4,3-j)-1,2-benzodioxepin-10-ol hydrogen succinate], for which the Solubility entry in data set [2] is given as “water-soluble”.
